Earlier results as cited in patent US7670620B2, “Topical composition for the treatment of psoriasis and related skin disorders” (Bioderm, Inc., priority 2000, dated 2010).

Test system: fibroblasts
Details: in vitro; Karzel and Domenjoz 1971

Compound	Secretion of mucopolysaccharides by fibroblasts
CC(=O)N[C@H]1C(O)O[C@H](CO)[C@@H](O)[C@@H]1O (stereo partly drawn) [N-acetylglucosamine]	also worked, but to a lesser degree
CC(=O)N[C@H]1C(O)O[C@H](CO)[C@H](O)[C@@H]1O (stereo partly drawn) [N-acetylgalactosamine]	also worked, but to a lesser degree
N[C@H]1C(O)O[C@H](CO)[C@@H](O)[C@@H]1O (stereo partly drawn) [glucosamine]	significantly increases secretion of mucopolysaccharides by fibroblasts
